# Results reported in PubChem BioAssay AID248 (DTP/NCI, 2004).
# Values joined by “and” are separate entries in the source; they are usually repeats but may differ in a detail not shown here. Equal entries are not always repeated. Inconclusive results and toxic doses are left out.
# System: L1210 leukemia ip in BDF1 mice, survival T/C
# Assay: NCI In Vivo Anticancer Drug Screen. Data for tumor model L1210 Leukemia (intraperitoneal) in B6D2F1 (BDF1) mice
# Settings: endpoint: mean survival time, higher = longer survival
# Outline: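 Read-out is survival time, reported as the treated-group measurement over the vehicle-control measurement.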
# [1] = dose: 100.0 mg/kg/injection, schedule: Q04DX003 (ip), vehicle: saline with Tween-80
# [2] = dose: 100.0 mg/kg/injection, schedule: Q01DX009 (ip), vehicle: saline with Tween-80
# [3] = dose: 200.0 mg/kg/injection, schedule: Q01DX009 (ip), vehicle: saline with Tween-80
# [4] = dose: 100.0 mg/kg/injection, schedule: Q01DX009 (ip), vehicle: Klucel (hydroxypropylcellulose) (HPC)
# [5] = dose: 200.0 mg/kg/injection, schedule: Q01DX009 (ip), vehicle: Klucel (hydroxypropylcellulose) (HPC)
# [6] = dose: 75.0 mg/kg/injection, schedule: Q01DX001 (ip), vehicle: other
# [7] = dose: 100.0 mg/kg/injection, schedule: Q04DX002 (ip), vehicle: Klucel (hydroxypropylcellulose) (HPC)
# [8] = dose: 200.0 mg/kg/injection, schedule: Q04DX002 (ip), vehicle: Klucel (hydroxypropylcellulose) (HPC)
# [9] = dose: 400.0 mg/kg/injection, schedule: Q04DX002 (ip), vehicle: Klucel (hydroxypropylcellulose) (HPC)
# [10] = dose: 100.0 mg/kg/injection, schedule: Q04DX003 (ip), vehicle: Klucel (hydroxypropylcellulose) (HPC)
# [11] = dose: 200.0 mg/kg/injection, schedule: Q04DX003 (ip), vehicle: Klucel (hydroxypropylcellulose) (HPC)
# [12] = dose: 400.0 mg/kg/injection, schedule: Q01DX009 (ip), vehicle: Klucel (hydroxypropylcellulose) (HPC)
# [13] = dose: 400.0 mg/kg/injection, schedule: Q04DX003 (ip), vehicle: Klucel (hydroxypropylcellulose) (HPC)
# [14] = dose: 200.0 mg/kg/injection, schedule: Q04DX003 (ip), vehicle: saline with Tween-80
# [15] = dose: 400.0 mg/kg/injection, schedule: Q04DX003 (ip), vehicle: saline with Tween-80
# [16] = dose: 100.0 mg/kg/injection, schedule: Q01DX001 (ip), vehicle: saline
# [17] = dose: 200.0 mg/kg/injection, schedule: Q01DX001 (ip), vehicle: saline
# [18] = dose: 50.0 mg/kg/injection, schedule: Q04DX003 (ip), vehicle: saline with Tween-80
smiles,measurement,setting,value
CC(=O)OC1CCC2(C)C(=CCC3C2CCC2(C)C3CC3C(c4ccccc4Br)=NN(c4ccccc4)C32C#N)C1 (centres undefined),T/C,"dose: 3.0 mg/kg/injection, schedule: Q04DX002 (ip), vehicle: Klucel (hydroxypropylcellulose) (HPC)",106 % of control
same,T/C,"dose: 6.0 mg/kg/injection, schedule: Q04DX002 (ip), vehicle: Klucel (hydroxypropylcellulose) (HPC)",94 % of control and 107 % of control
same,T/C,"dose: 12.0 mg/kg/injection, schedule: Q04DX002 (ip), vehicle: Klucel (hydroxypropylcellulose) (HPC)",100 % of control
same,T/C,"dose: 25.0 mg/kg/injection, schedule: Q04DX002 (ip), vehicle: Klucel (hydroxypropylcellulose) (HPC)",104 % of control
same,T/C,"dose: 50.0 mg/kg/injection, schedule: Q04DX002 (ip), vehicle: Klucel (hydroxypropylcellulose) (HPC)",114 % of control
CNCCc1ccc2cc(OC)c(OC)cc2c1,T/C,[1],91 % of control
COc1ccc(/C=N/NC(=O)c2ccccc2Cl)cc1OC,T/C,"dose: 50.0 mg/kg/injection, schedule: Q01DX009 (ip), vehicle: saline with Tween-80",102 % of control
same,T/C,[2],91 % of control
same,T/C,[3],88 % of control
C=CC(C)NC(=S)NNC(=S)NC (centres undefined),T/C,"dose: 15.0 mg/kg/injection, schedule: Q01DX015 (ip), vehicle: carboxymethylcellulose (CMC)",95 % of control
same,T/C,"dose: 30.0 mg/kg/injection, schedule: Q01DX015 (ip), vehicle: carboxymethylcellulose (CMC)",104 % of control
same,T/C,"dose: 50.0 mg/kg/injection, schedule: Q01DX001 (ip), vehicle: carboxymethylcellulose (CMC)",104 % of control
same,T/C,"dose: 60.0 mg/kg/injection, schedule: Q01DX015 (ip), vehicle: carboxymethylcellulose (CMC)",95 % of control
same,T/C,"dose: 100.0 mg/kg/injection, schedule: Q01DX001 (ip), vehicle: carboxymethylcellulose (CMC)",105 % of control
same,T/C,"dose: 120.0 mg/kg/injection, schedule: Q01DX015 (ip), vehicle: carboxymethylcellulose (CMC)",98 % of control
same,T/C,"dose: 200.0 mg/kg/injection, schedule: Q01DX001 (ip), vehicle: carboxymethylcellulose (CMC)",109 % of control
same,T/C,"dose: 240.0 mg/kg/injection, schedule: Q01DX015 (ip), vehicle: carboxymethylcellulose (CMC)",87 % of control and 89 % of control
BrP(Nc1ccccc1)(c1ccccc1)(c1ccccc1)c1ccccc1,T/C,"dose: 10.0 mg/kg/injection, schedule: Q01DX001 (ip), vehicle: acetone",100 % of control
same,T/C,"dose: 20.0 mg/kg/injection, schedule: Q01DX001 (ip), vehicle: acetone",101 % of control
same,T/C,"dose: 40.0 mg/kg/injection, schedule: Q01DX001 (ip), vehicle: acetone",91 % of control
CC(=O)OCC(OC(C)=O)C1(O)CCC2C3CCC4=CC(=O)CCC4(C)C3CCC21C (centres undefined),T/C,"dose: 50.0 mg/kg/injection, schedule: Q01DX009 (ip), vehicle: Klucel (hydroxypropylcellulose) (HPC)",100 % of control
same,T/C,[4],94 % of control and 107 % of control
same,T/C,[5],93 % of control
COc1ccc2cnnc(NN)c2c1,T/C,[6],97 % of control
COC(=O)C(=O)CC(=O)c1ccccc1,T/C,[7],116 % of control
same,T/C,[8],106 % of control
same,T/C,[9],118 % of control
O=C(NC(=S)Nc1cccc(Cl)c1)c1ccc(Cl)cc1Cl,T/C,"dose: 100.0 mg/kg/injection, schedule: Q01DX001 (ip), vehicle: Klucel (hydroxypropylcellulose) (HPC)",87 % of control
same,T/C,[4],87 % of control
same,T/C,[7],115 % of control
same,T/C,[10],97 % of control
same,T/C,[5],97 % of control and 87 % of control
same,T/C,[8],93 % of control
same,T/C,[11],103 % of control
same,T/C,[12],87 % of control and 92 % of control
same,T/C,[9],94 % of control
same,T/C,[13],108 % of control
CC(C)CCCC(C)C1CCC2C3CC(=O)NC45CC4CCC5(C)C3CCC12C (centres undefined),T/C,[1],116 % of control
same,T/C,[14],97 % of control
same,T/C,[15],92 % of control
CC(=O)NCCNC(C)=O,T/C,"dose: 50.0 mg/kg/injection, schedule: Q01DX001 (ip), vehicle: saline",102 % of control
same,T/C,[16],108 % of control
same,T/C,[17],117 % of control
same,T/C,"dose: 400.0 mg/kg/injection, schedule: Q01DX001 (ip), vehicle: saline",96 % of control
Cc1cc(C)c(NS(=O)(=O)c2ccc([N+](=O)[O-])cc2)c(C)c1,T/C,[1],89 % of control
same,T/C,[14],93 % of control
same,T/C,[15],86 % of control
C#CCN(CC#C)C(=O)Nc1ccc(Cl)cc1,T/C,"dose: 25.0 mg/kg/injection, schedule: Q04DX002 (ip), vehicle: saline with Tween-80",96 % of control
same,T/C,"dose: 50.0 mg/kg/injection, schedule: Q04DX002 (ip), vehicle: saline with Tween-80",96 % of control
same,T/C,"dose: 100.0 mg/kg/injection, schedule: Q04DX002 (ip), vehicle: saline with Tween-80",99 % of control and 106 % of control
Cc1ccc(N=Cc2ccccc2)cc1,T/C,[4],104 % of control
same,T/C,[10],95 % of control
same,T/C,[5],107 % of control
same,T/C,[11],101 % of control
same,T/C,[12],104 % of control
same,T/C,[13],101 % of control
CC1(C)SC(N=C=Nc2ccccc2)CN1C=O (centres undefined),T/C,[6],96 % of control
same,T/C,"dose: 150.0 mg/kg/injection, schedule: Q01DX001 (ip), vehicle: other",86 % of control
same,T/C,"dose: 300.0 mg/kg/injection, schedule: Q01DX001 (ip), vehicle: other",93 % of control
C=CCNC(=O)c1ccc[n+](CC(=O)NCCCCCCCCCC)c1,T/C,"dose: 12.5 mg/kg/injection, schedule: Q04DX003 (ip), vehicle: saline with Tween-80",95 % of control
same,T/C,"dose: 25.0 mg/kg/injection, schedule: Q04DX003 (ip), vehicle: saline with Tween-80",101 % of control
same,T/C,[18],94 % of control
CC(O)c1ccc(Cl)c(Cl)c1 (centres undefined),T/C,[4],91 % of control
same,T/C,[10],98 % of control
same,T/C,[5],90 % of control
same,T/C,[11],109 % of control
same,T/C,[12],101 % of control
same,T/C,[13],104 % of control
Cc1ccc(CNc2ccc(I)cc2)cc1,T/C,[2],96 % of control
same,T/C,[3],96 % of control
same,T/C,"dose: 400.0 mg/kg/injection, schedule: Q01DX009 (ip), vehicle: saline with Tween-80",98 % of control
O=NN(CCCl)C(=O)Nc1ccc2c(c1)CCCC2,T/C,"dose: 31.0 mg/kg/injection, schedule: Q01DX001 (ip), vehicle: carboxymethylcellulose (CMC)",124 % of control
same,T/C,"dose: 84.0 mg/kg/injection, schedule: Q01DX001 (ip), vehicle: carboxymethylcellulose (CMC)",186 % of control
same,T/C,"dose: 119.0 mg/kg/injection, schedule: Q01DX001 (ip), vehicle: carboxymethylcellulose (CMC)",231 % of control
same,T/C,"dose: 125.0 mg/kg/injection, schedule: Q01DX001 (ip), vehicle: carboxymethylcellulose (CMC)",188 % of control
same,T/C,"dose: 178.0 mg/kg/injection, schedule: Q01DX001 (ip), vehicle: carboxymethylcellulose (CMC)",216 % of control
same,T/C,"dose: 187.0 mg/kg/injection, schedule: Q01DX001 (ip), vehicle: carboxymethylcellulose (CMC)",215 % of control
same,T/C,"dose: 238.0 mg/kg/injection, schedule: Q01DX001 (ip), vehicle: carboxymethylcellulose (CMC)",223 % of control
same,T/C,"dose: 250.0 mg/kg/injection, schedule: Q01DX001 (ip), vehicle: carboxymethylcellulose (CMC)",89 % of control
same,T/C,"dose: 357.0 mg/kg/injection, schedule: Q01DX001 (ip), vehicle: carboxymethylcellulose (CMC)",101 % of control
NC(=O)Nc1n[nH]c(-c2ccccc2)n1,T/C,"dose: 100.0 mg/kg/injection, schedule: Q01DX009 (ip), vehicle: saline",90 % of control
CC(=O)CC(=O)Nc1cccc(C)c1C,T/C,[4],95 % of control
same,T/C,[10],97 % of control
same,T/C,[5],88 % of control
same,T/C,[11],106 % of control
same,T/C,[12],88 % of control
same,T/C,[13],105 % of control
CCCCNC(C)(C)COC(=O)/C=C/c1ccc(OCCCC)cc1,T/C,[18],92 % of control
same,T/C,[16],104 % of control
same,T/C,"dose: 100.0 mg/kg/injection, schedule: Q01DX015 (ip), vehicle: saline",86 % of control
same,T/C,[1],94 % of control
same,T/C,[17],102 % of control
same,T/C,"dose: 200.0 mg/kg/injection, schedule: Q01DX015 (ip), vehicle: saline",89 % of control
same,T/C,[14],105 % of control
